Data as given in publication PMC7027018 (BMC Chemistry, 2020).

Legend:
[1] = molecular target: T1, hMAO-A (Homo sapiens, UniProt P21397); experiment: hMAO-A inhibitory activity, Amplex Red continuous fluorometric assay; format: biochemical; settings: recombinant hMAO-A, p-tyramine substrate, mean SEM
T1 construct: purchased Sigma-Aldrich; host or cells: insect cells (BTI-TN-5B14), recombinant baculovirus
T1 sequence (P21397 1-527): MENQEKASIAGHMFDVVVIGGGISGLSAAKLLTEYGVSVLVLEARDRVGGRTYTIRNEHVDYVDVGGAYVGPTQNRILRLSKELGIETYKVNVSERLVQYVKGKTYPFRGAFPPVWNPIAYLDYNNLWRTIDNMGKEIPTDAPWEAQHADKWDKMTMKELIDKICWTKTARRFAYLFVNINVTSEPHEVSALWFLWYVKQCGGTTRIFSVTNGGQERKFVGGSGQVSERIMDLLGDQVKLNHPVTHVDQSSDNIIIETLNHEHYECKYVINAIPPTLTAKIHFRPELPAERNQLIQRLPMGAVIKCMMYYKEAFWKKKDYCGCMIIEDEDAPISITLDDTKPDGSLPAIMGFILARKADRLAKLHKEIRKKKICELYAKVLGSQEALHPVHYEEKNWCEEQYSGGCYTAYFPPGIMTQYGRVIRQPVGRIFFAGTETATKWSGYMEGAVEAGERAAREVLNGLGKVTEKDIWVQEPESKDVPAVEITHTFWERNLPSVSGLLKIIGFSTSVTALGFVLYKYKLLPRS
Procedure: (§1) The synthesized derivatives were screened for the hMAO-A and hMAO-B inhibitory activities by using an extremely sensitive continuous fluorometric assay containing Amplex Red (10-acetyl-3, 7-dihydroxyphenoxazine) reagent. The enzymatic H2O2 was measured with and without extracts or standards.
(§2) Unless otherwise noted, the analytical grade chemicals required for synthesis and antioxidant activity procured from Sigma Aldrich, Merck, Hi-media Laboratories. The analytical assessment of the synthesized derivatives for hMAO inhibition was measured by their effects on the generation of hydrogen peroxide (H2O2) by p-tyramine (a general substrate for both MAO isoforms), utilizing the Amplex Red MAO assay kit (Sigma USA) and microsomal MAO enzymes extracted by insect cells (BTI-TN-5B14) expressed on recombinant baculovirus containing cDNA probes for MAO isoforms (Sigma-Aldrich USA) were used as source for the two microsomal MAO isoforms. The progress of the reaction was cheeked through thin layer chromatography TLC executed on 0.25 mm pre-coated plates with silica gel procured from Merck, and the spots were envisaged in iodine chamber and UV cabinet, in mobile media TLC-hexane:toluene:ethyl acetate (1:1:1). Melting points were recorded on Sonar melting point apparatus in open capillary tubes. The nuclear magnetic resonance (NMR) spectra 1H NMR and ^13C NMR spectra were determined in DMSO and deuterated CDCl3 respectively on a spectrometer (Model: Bruker Avance II 400 NMR). Coupling constants J are in hertz (Hz) (Additional file 1). Spectral data for infrared (IR) was confirmed on Perkin Elmer FTIR spectrophotometer by using KBr pellets technique.
(§3) Human MAO-A and -B recombinant enzymes (Sigma-Aldrich) 5 mg ml^−1 were pre-aliquoted and placed at − 70 °C. The interactions of the titled compounds with hMAO isoforms were evaluated through a fluorimetric method based on the H2O2 formation rendered by MAO isoforms was identified by utilizing the non-fluorescent, extremely susceptible and stable probe Amplex®-Red reagent (10-acetyl-3,7-dihydroxyphenoxazine), which reacts with H2O2 in the existence of horseradish peroxidase to generate resorufin which is a fluorescent component. […] By the incubation time, the reaction was initiated via the addition of 200 μM Amplex Red reagent, 1 mM p-tyramine (general substrate for both MAO isoforms) and 1 U ml^−1 horseradish peroxidase (HRP). […] The calculation of specific fluorescence emission (used to obtain the final results) was carried out by subtraction of background action that was identified by the cuvettes comprising all reagents except the MAO isoforms, which were changed by a sodium phosphate buffer solution. The preparation of stock solutions and all reagents was done newly each day in deionized water and kept at − 20 °C. Data were processed in Microsoft Excel, to calculate IC50 values.
(§4) The enzymatic kinetic factors maximum reaction rate (Vmax) and Michaelis–Menten constant (Km) were computed by GraphPad Prism Software 6.02 (San Diego, CA, USA). The IC50 values were determined by nonlinear regression best fit model of normalized response with variable slope. Lineweaver–Burk plot was obtained from Michaelis–Menten data. The Michaelis–Menten constant (Km) is the concentration of […]. Relative selectivity (RS) folds were defined by the ratio of hMAO-A IC50 to hMAO-B IC50. The inhibition mechanism was identified by the double reciprocal plot (Lineweaver–Burk curves) by plotting the inverse of the substrate concentration (1/S) as a function against the inverse of initial velocity (1/V).

[2] = molecular target: T2, hMAO-B (Homo sapiens, UniProt P27338); experiment: hMAO-B inhibitory activity, Amplex Red continuous fluorometric assay; format: biochemical; settings: for IC50: recombinant hMAO-B, p-tyramine substrate, Amplex Red, mean SEM; for Selectivity index: IC50 (MAO-A)/IC50 (MAO-B)
T2 construct: purchased Sigma-Aldrich; host or cells: insect cells (BTI-TN-5B14), recombinant baculovirus
T2 sequence (P27338 1-520): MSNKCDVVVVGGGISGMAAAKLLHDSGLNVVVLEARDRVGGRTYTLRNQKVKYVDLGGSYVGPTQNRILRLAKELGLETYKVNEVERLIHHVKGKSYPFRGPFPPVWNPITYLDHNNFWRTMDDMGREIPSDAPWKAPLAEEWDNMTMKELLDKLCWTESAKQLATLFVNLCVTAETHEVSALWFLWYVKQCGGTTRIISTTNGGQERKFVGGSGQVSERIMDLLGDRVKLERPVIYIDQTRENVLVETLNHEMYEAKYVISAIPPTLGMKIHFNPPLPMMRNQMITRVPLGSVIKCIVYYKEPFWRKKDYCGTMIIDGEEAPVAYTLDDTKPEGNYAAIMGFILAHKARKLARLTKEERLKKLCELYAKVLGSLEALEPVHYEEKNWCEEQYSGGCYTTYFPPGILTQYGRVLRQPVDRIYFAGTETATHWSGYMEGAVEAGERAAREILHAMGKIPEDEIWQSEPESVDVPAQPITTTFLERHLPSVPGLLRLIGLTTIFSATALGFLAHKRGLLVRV
Procedure: as §1, §2, §3, §4

[3] = DPPH radicals scavenging activity; settings: absorbance at 517 nm, 30 min at 37 °C; mean ± SEM, n = 3
Excerpt: Besides their inhibitory action on hMAO the antioxidant potential of synthesized compounds was investigated using 1,1-Diphenyl-2-picrylhydrazyl (DPPH) assay. DPPH was utilized as a stable free radical because free radicals simulate reactive nitrogen and oxygen species distressing neurological structure.
The DPPH method is one of the most proficient techniques to assess the radical-scavenging action by a chain-breaking mechanism. […] DPPH is stable free radical on room temperature, however on acceptance of a hydrogen/electron radical it turns into a stable diamagnetic molecule. The scavenging activity of DPPH radical is assessed by the reduction in its optical density at 5l7 nm, rendered by antioxidants. This phenomenal feature of DPPH is due to the reaction among antioxidant compounds and radicals, leads to the scavenging of the free radical via donated hydrogen. It manifested visually as the color bleaches from purple to yellow. Therefore, DPPH is generally utilized as a substrate to estimate the ant oxidative potential. Different concentrations of around […] (25, 50, 75, and 100) µg ml^−1 of the titled derivatives were suspended in methanol and mixed with 5 ml of a 0.004% methanol solution of DPPH. Subsequently the all dilutions were subjected to incubation for 30 min at 37 °C temperature; finally, at 517 nm the absorbance was measured against a blank. Ascorbic acid was utilized as a reference while and all the experiments were performed in triplicate. […] DPPH free radical scavenging of compounds was calculated as scavenging activity for DPPH (%) = [(Ac − At)/Ac] × 100 Where Ac is the absorbance of the control reaction At is the absorbance of the test compound. The absorbance was measured with UV/Vis Epoch ELISA reader at 517 nm, and antioxidant activity was measured as a decrease in absorbance of DPPH·.

[4] = Hydrogen peroxide scavenging (H2O2) assay; settings: absorption at 230 nm, 10 min incubation, phosphate buffer pH 7.4; mean ± SEM, n = 3
Procedure: H2O2 is quickly decomposed into oxygen and water and this could generate hydroxyl radicals (OH) that may commence DNA damage in the body and lipid peroxidation. The hydrogen peroxide inhibitory activity of newly synthesized compounds was assessed by the technique illustrated by Nakano and coworkers with some modifications. In phosphate buffer (40 mM pH 7.4) the solution of hydrogen peroxide (40 mM) was prepared and different concentrations of titled compounds (05–80 μg ml^−1) were added to H2O2 solution (2 ml). The concentration of hydrogen peroxide is determined by absorption at 230 nm using a spectrophotometer after 10 min of incubation. Blank reading was noted of phosphate buffer without H2O2. The percentage of hydrogen peroxide inhibition was anticipated by the formula [(Ab − At)/[…]] × 100, where Ab is the absorbance of the control and At is the absorbance of compounds/standard taken as L-ascorbic acid (05–80 μg ml^−1). UV/Vis Epoch ELISA reader was used to measure as a decrease in absorbance in the 96 wells (Table 5).

[5] = molecular target: T1, hMAO-A; experiment: Kinetic study (Lineweaver-Burk) of hMAO-A inhibition; format: biochemical; settings: Lineweaver-Burk plots, p-tyramine substrate
Excerpt: The kinetic study by the Lineweaver–Burk plots, carried out to explicates the type of inhibition by compounds 7, 15 shown their significant inhibitory potential towards hMAO-A and hMAO-B, respectively. Reaction mixtures composing of five diverse concentrations of p-tyramine was used as a common substrate in the presence or absence of compounds.
as §4

Row | Structure (SMILES) | IC50 [1] | IC50 [2] | IC50 [3] | IC50 [4] | Selectivity index [2] | type of hMAO-A inhibition [5]
1 | O=C(/C=C/C=C/c1ccc2c(c1)OCO2)Nc1ccc(Br)cc1 [Compound 5] | 60.19 ± 0.087 µM | 14.19 ± 0.007 µM | 5.553 ± 0.007 µM | 8.279 ± 0.017 µM | 4.241 | –
2 | CC1CCC(C(C)C)C(OC(=O)/C=C/C=C/c2ccc3c(c2)OCO3)C1 (stereo not drawn) [Compound 11] | 33.72 ± 0.071 µM | 20.59 ± 0.006 µM | 14.15 ± 0.011 µM | 17.57 ± 0.091 µM | 1.637 | –
3 | Cc1ccc(C(C)C)cc1OC(=O)/C=C/C=C/c1ccc2c(c1)OCO2 [Compound 17a] | 32.33 ± 0.043 µM | 21.37 ± 0.007 µM | 17.15 ± 0.026 µM | 23.76 ± 0.021 µM | 1.512 | –
4 | COc1cc(C=O)ccc1OC(=O)/C=C/C=C/c1ccc2c(c1)OCO2 [Compound 17b] | 30 ± 0.005 µM | 17.9 ± 0.038 µM | 8.281 ± 0.001 µM | 10.09 ± 0.013 µM | 1.675 | –

Molecules with a lower IC50 [1], results first:

Row | IC50 [1] | IC50 [2] | IC50 [3] | IC50 [4] | Selectivity index [2] | type of hMAO-A inhibition [5] | Structure (SMILES)
5 | 22.19 ± 0.07 µM | 71.01 ± 0.005 µM | 12.35 ± 0.021 µM | 13.98 ± 0.01 µM | – | – | O=C(/C=C/C=C/c1ccc2c(c1)OCO2)N1CCOCC1 [Compound 9]
6 | 24.53 ± 0.002 µM | 65.99 ± 0.002 µM | 10.7 ± 0.035 µM | 11.35 ± 0.004 µM | 0.371 | – | O=C(/C=C/C=C/c1ccc2c(c1)OCO2)Oc1ccc2ccc(=O)oc2c1 [Compound 13]
7 | 16.11 ± 0.091 µM | 26.44 ± 0.063 µM | 16.52 ± 0.012 µM | 15.71 ± 0.014 µM | 0.609 | – | C=CCc1ccc(OC(=O)/C=C/C=C/c2ccc3c(c2)OCO3)c(OC)c1 [Compound 17c]
8 | 15.38 ± 0.071 µM | 52.2 ± 0.006 µM | 8.815 ± 0.019 µM | 9.495 ± 0.045 µM | 0.294 | competitive | O=C(/C=C/C=C/c1ccc2c(c1)OCO2)Nc1cccc2ccccc12 [Compound 7]
9 | 19.01 ± 0.031 µM | 17.57 ± 0.037 µM | 9.814 ± 0.053 µM | 11.33 ± 0.016 µM | 1.081 | – | O=C(/C=C/C=C/c1ccc2c(c1)OCO2)N1CCCCC1 [Piperine, reference compound]
